Tests used:
12-LOX = target: T1, 12-LOX (Homo sapiens, UniProt P18054); experiment: 12-LOX product formation in activated PMNL; type: cell-based
T1 construct: endogenous in cells; host or cells: primary human PMNL
Experimental: (§1) Freshly isolated PMNL (5 × 10^6) suspended in PBS pH 7.4 with 1 mg/mL glucose or freshly withdrawn human whole blood were preincubated with the test compounds for 10 min (or as indicated) at 37 °C. […] The reaction was stopped with an equal volume of methanol.

COX-1 = target: T2, COX-1 (Homo sapiens, UniProt P23219); experiment: Platelet COX-1 activity (12-HHT formation); type: cell-based
T2 construct: Freshly isolated platelets (1 × 10^8) were preincubated with vehicle (DMSO) or 27a; endogenous in cells; host or cells: freshly isolated human platelets
Experimental: Freshly isolated platelets (1 × 10^8) were preincubated with vehicle (DMSO) or 27a for 5 min at room temperature. Arachidonic acid (5 μM) was added to induce 12-HHT formation.

[1] = system: zymosan-induced murine peritonitis; experiment: Zymosan-induced peritonitis in mice; type: in vivo
Experimental: Male CD-1 mice (33–39 g, 6–8 weeks, Charles River Laboratories; Calco, Italy) and female BALB/c mice (20 g, 8 weeks, Charles River Laboratories) were fed with standard rodent chow and water and acclimated for 4 days at a 12 h light and 12 h dark schedule in a constant air-conditioned environment (21 ± 2 °C). Mice were randomly assigned to groups, and experiments were carried out during the light phase.
Zymosan (2 mg/mL in saline, i.p., 0.5 mL, Sigma-Aldrich) was injected at 30 min (i.p.) or 60 min (p.o.) post compound administration. Mice were sacrificed by inhalation of CO2 after another 30 min to determine LTC4 levels, lipid mediator profiles, metabolites, and vascular permeability and after 4 h to analyze LTB4 levels and cell infiltration.[72] Plasma and peritoneal exudates were collected, and cells were counted in exudates after trypan blue staining. Vascular permeability was measured by injection of Evans blue dye (40 mg/kg in saline, 0.3 mL, Sigma-Aldrich) into the tail vain directly before peritonitis induction.[72] The exudate was centrifuged (3000g, 5 min), and the absorbance was measured at 610 nm (DU730 spectrophotometer, Beckman Coulter, Krefeld, Germany). Levels of LTB4 and cysteinyl-LTs (dominated by LTC4) were quantified in the exudate by ELISA (Enzo Life Sciences, Lörrach, Germany) according to the manufacturer’s instructions. Compound 27a, its metabolites, and lipid mediators were extracted and analyzed by UPLC-MS/MS.

[2] = target: single mutant Arg101Asp 5-LOX (R101D) (Homo sapiens, UniProt P09917, R102D); experiment: Cell-free activity of 5-LOX single mutant (R101D)
Experimental: Human recombinant 5-LOX was expressed in E. coli Bl21 (DE3) cells that were transformed with pT3–5LOX (wt 5-LOX), 5-LOX_3W (triple mutation of Trp102Ala/Trp13Ala/Trp75Ala), or 5-LOX_R (single mutant of the Arg101Asp plasmid) and purified on an ATP-agarose column (Econo-Pac, Bio-Rad, Hercules, CA) by affinity chromatography.[6],[75]
Purified 5-LOX (0.5 μg in PBS pH 7.4 containing 1 mM EDTA and 1 mM ATP) was preincubated with the vehicle (DMSO) or test compounds for 10 min and prewarmed at 37 °C.

15-LOX = 15-LOX product formation in activated PMNL; type: cell-based, human
Experimental: as §1

CYP3A4 = CYP3A4 expression in differentiated HepaRG cells; type: cell-based, human; details: 48 h
Experimental: HepaRG cells were seeded at a density of 2.6 × 10^4 cells/cm^2 in Williams’ E medium supplemented with 2 mM GlutaMAX (Thermo Fisher Scientific, Waltham, MA), 100 U/mL penicillin, 100 μg/mL streptomycin, 10% HyClone FCS (Thermo Fisher Scientific), 5 μg/mL insulin, and […] hydrocortisone-hemisuccinate. At confluence after two weeks, HepaRG cells were shifted to a medium supplemented with 1.7% DMSO for two additional weeks to obtain confluent differentiated cultures containing equal proportions of hepatocyte-like and progenitors/primitive biliary-like cells. These differentiated hepatic cell cultures were exposed to the compounds in Williams’ E medium supplemented with 2% FCS plus 0.2% DMSO for 48 h. […]
The assay plate was imaged and analyzed using the Cell Health Profiling BioApplications (HCS Studio Cellomics software Version x.6.4.3 (Build 7207)) on the ArrayScan VTI HCS Reader (Thermo Fisher Scientific—Cellomics, Pittsburgh, PA) using the 20× objective (Zeiss, LD Plan Neofluar 20×/0.4 korr). […]
The CYP3A4 expression was quantified using an arbitrary unit of fluorescent mass representing the combination of intensity and area adjusted to cell number calculated by nuclei counting (Hoechst).

[3] = Concentrations of compound in plasma and lung in the asthma model; type: in vivo, mice; details: 10 mg/kg p.o. on days 0 and 7
Experimental: LCMs, 27a, and 27a metabolites were extracted from PMNL, medium of the liver-on-chip, murine plasma, peritoneal exudate, or homogenized murine tissue as described.[6] In brief, PBS pH 7.4, methanol, chloroform, and saline (final ratio: 14:34:35:17) were successively added together with 13d (9 pmol) as the internal standard. The organic layer was evaporated, and the extracted LCMs were dissolved in methanol.
LCMs, 27a, and 27a metabolites were separated at a flow rate of 0.8 mL/min and a column temperature of 45 °C, with acetonitrile/H2O (10:90) as mobile phase A and acetonitrile as mobile phase B, both acidified with 0.07% formic acid. […] Signal intensities were normalized to the internal standard 13d, and concentrations were calculated using external calibration curves as specified in Table S3.
BALB/c mice received 27a (p.o.) or vehicle (0.5% carboxymethylcellulose in 10% Tween 20; 0.5 mL) on days 0 and 7, 1 h (p.o) before being sensitized to ovalbumin (100 μg adsorbed to 3.3 mg of aluminum hydroxide gel, s.c., Sigma-Aldrich). […] To assess bronchial reactivity, the cumulative response to carbachol (0.001 to 3.16 μM) was measured. Bronchial relaxation was determined from the cumulative response of precontracted bronchial tissues to salbutamol. Compound 27a, LTB4, and LTB4 isomers were analyzed in plasma and lung homogenates by UPLC-MS/MS. […]

[4] = 10 mg/kg i.p., 30 min post zymosan
[5] = 10 mg/kg i.p., 4 h post zymosan

T2 sequence (P23219 24-599): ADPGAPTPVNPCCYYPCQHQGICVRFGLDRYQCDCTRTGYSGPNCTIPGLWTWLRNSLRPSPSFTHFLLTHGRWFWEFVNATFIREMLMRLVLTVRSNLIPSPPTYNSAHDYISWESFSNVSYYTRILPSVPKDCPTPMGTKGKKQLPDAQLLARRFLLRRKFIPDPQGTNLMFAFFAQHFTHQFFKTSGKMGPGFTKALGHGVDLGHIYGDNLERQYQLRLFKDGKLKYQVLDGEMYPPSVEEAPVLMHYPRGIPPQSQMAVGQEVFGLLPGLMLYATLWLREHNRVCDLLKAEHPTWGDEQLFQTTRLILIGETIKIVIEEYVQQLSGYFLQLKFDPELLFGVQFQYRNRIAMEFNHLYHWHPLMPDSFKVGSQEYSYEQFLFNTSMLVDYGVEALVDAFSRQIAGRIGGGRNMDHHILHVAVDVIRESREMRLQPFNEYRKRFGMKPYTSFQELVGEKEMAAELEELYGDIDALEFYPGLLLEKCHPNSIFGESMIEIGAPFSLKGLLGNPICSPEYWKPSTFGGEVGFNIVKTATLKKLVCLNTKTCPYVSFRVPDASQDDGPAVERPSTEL
Sequence of single mutant Arg101Asp 5-LOX (R101D) (P09917 whole entry R102D): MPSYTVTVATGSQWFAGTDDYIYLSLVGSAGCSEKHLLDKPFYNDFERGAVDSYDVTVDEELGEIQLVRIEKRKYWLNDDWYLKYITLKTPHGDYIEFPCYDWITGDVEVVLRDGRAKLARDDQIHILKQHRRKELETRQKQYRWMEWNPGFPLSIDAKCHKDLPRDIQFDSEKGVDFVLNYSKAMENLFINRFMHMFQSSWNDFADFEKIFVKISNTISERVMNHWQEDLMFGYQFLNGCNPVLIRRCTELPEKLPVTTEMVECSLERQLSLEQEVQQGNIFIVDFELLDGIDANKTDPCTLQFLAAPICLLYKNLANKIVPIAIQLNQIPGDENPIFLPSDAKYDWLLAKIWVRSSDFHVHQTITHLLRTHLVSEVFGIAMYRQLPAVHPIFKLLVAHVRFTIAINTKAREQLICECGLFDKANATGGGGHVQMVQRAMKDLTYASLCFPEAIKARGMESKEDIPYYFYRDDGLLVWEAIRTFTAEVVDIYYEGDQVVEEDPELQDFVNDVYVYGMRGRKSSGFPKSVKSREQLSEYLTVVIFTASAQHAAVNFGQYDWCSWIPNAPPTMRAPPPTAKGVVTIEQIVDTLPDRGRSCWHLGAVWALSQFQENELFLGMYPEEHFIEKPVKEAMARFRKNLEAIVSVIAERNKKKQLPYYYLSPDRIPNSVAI
T1 sequence (P18054 whole entry): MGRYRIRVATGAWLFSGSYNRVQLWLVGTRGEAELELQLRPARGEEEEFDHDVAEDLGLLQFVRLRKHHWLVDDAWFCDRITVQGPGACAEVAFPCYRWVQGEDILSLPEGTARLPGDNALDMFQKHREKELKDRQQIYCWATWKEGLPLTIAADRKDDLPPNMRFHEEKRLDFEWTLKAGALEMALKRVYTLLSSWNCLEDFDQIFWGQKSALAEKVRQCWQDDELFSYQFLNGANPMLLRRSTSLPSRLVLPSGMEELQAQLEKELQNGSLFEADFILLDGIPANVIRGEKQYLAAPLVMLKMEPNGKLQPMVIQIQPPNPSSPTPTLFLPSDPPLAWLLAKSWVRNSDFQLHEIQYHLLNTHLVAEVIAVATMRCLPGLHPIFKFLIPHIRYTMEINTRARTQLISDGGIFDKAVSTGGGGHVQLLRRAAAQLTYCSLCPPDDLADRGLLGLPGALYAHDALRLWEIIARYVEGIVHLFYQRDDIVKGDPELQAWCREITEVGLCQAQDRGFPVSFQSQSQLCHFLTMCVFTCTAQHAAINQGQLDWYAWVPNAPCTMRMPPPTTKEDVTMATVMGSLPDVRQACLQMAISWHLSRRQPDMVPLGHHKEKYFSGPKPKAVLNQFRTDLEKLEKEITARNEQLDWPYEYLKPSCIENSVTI

C/C(=C\CC/C(C)=C/CC[C@]1(C)CCc2c(C)c(O)c(C)c(C)c2O1)CCC=C(CO)CO [Compound 27a, α-amplexichromanol]
12-LOX inhibition (12-LOX): not substantially inhibited
COX-1 inhibition within human platelets (COX-1): not substantially inhibited
Cysteinyl-LTs in the exudate ([1]; 3 mg/kg p.o., 30 min post zymosan): decreased to a basal level
LTC4 levels in the exudate [1, 4]: strongly decreased LTC4 levels in the exudate
Vascular permeability [1, 4]: reduced vascular permeability
Influx of cells into the peritoneal cavity [1, 5]: accordingly reduced
LTB4 levels in the exudate [1, 5]: substantially lowered LTB4 levels
Resolvin E3 levels in the exudate ([1]; 10 mg/kg p.o., 30 min post zymosan injection, individual mice): moderately increased
Effect of Arg101Asp replacement on 5-LOX inhibition [2]: failed to affect 5-LOX inhibition
15-LOX inhibition (15-LOX; activated human PMNL): not substantially inhibited
15-LOX product formation (15-LOX; submicromolar concentrations): increased by a trend
CYP450 enzyme (CYP3A4) expression (CYP3A4): did not induce CYP450 enzyme expression
Time course of systemic concentrations in plasma and lung [3]: peaked at the days after administration (days 1 and 8) and then rapidly declined

From paper PMC8365602 (Journal of Medicinal Chemistry, 2021)
